Experimental data from ChEMBL document CHEMBL1149576, “Convergent synthesis and in vivo inhibitory effect on fat accumulation of (-)-ternatin, a highly N-methylated cyclic peptide” (2007).
The source made the active and inactive calls. The rule behind the calls is not given here.

Tested on: 3T3-L1
Test: Inhibition of fat accumulation in mouse 3T3L1 adipocytes
Assay type: functional, cell-based

CC[C@H](C)[C@H]1NC(=O)[C@@H]([C@H](O)C(C)C)NC(=O)[C@@H](C)N(C)C(=O)[C@H](C)N(C)C(=O)[C@H](CC(C)C)NC(=O)[C@H](CC(C)C)N(C)C(=O)[C@H](C)N(C)C1=O
Activity: Active
